The text below walks through data of PMC6410325, “Dual BACE1 and Cholinesterase Inhibitory Effects of Phlorotannins from Ecklonia cava—An In Vitro and in Silico Study” (Marine Drugs, 2019).

Data set [1] concerns the target T1, BACE1 (Homo sapiens, UniProt P56817).
T1 construct: purchased Invitrogen (Pan Vera, Madison, WI, USA)
Nature of the data set: Fluorometric BACE1 inhibition assay. The format is biochemical. Conditions: three independent experiments; log dose inhibition curve; read-out: IC50 (mean ± SD) BACE1.
Description: Fluorometric assays with a recombinant human BACE1 or TACE were conducted according to manufacturer instructions. […] The inhibition ratio was obtained using the following equation:Inhibition (%) = [1 − (S − S0)/(C − C0)] × 100 where C was the fluorescence of control (enzyme, assay buffer, and substrate) after 60 min of incubation, C0 was the fluorescence of control at time 0, S was the fluorescence of tested samples (enzyme, sample solution, and substrate) after 60 min of incubation, and S0 was the fluorescence of the tested samples at time 0.

In data set [2] the target is T2, AChE from Electrophorus electricus (electric eel) (Electrophorus electricus, UniProt O42275).
T2 construct: purchased Sigma-Aldrich (St. Louis, MO, USA)
As to the kind of experiment: Colorimetric AChE inhibition assay (DTNB). The data set is classed as biochemical. Conditions: three independent experiments; log dose inhibition curve; read-out: IC50 (mean ± SD) AChE.
Description: The colorimetric assays, including AChE, trypsin, chymotrypsin, and elastase were assayed according to previously described methods [36]. […] All reactions were performed in 96-well plates in triplicate and recorded using a microplate spectrophotometer.

For data set [3], the target named is T3, human recombinant TACE (α-secretase) (Homo sapiens, UniProt P78536).
T3 construct: purchased R&D Systems (Minneapolis, MN, USA)
Nature of the data set: Fluorometric TACE inhibition assay. Conditions: mean ± SD, read-out: Inhibitory activity TACE (α-Secretase); for inhibition at 50 µM: 50 μM compound; for inhibition at 100 µM: 100 μM compound. The format is biochemical. As to the method:
(§1) Fluorometric assays with a recombinant human BACE1 or TACE were conducted according to manufacturer instructions. Briefly, reaction mixtures containing human recombinant BACE1 (1.0 U/mL), the substrate (75 μM in 50 mM ammonium bicarbonate), and phlorotannins dissolved in an assay buffer (50 mM sodium acetate, pH 4.5) were incubated in darkness for 60 min at 25 °C in well plates. The increase in fluorescence intensity produced by substrate hydrolysis was observed on a fluorescence microplate reader with excitation and emission wavelengths of 545 and 590 nm, respectively. The inhibition ratio was obtained using the following equation:Inhibition (%) = [1 − (S − S0)/(C − C0)] × 100 where C was the fluorescence of control (enzyme, assay buffer, and substrate) after 60 min of incubation, C0 was the fluorescence of control at time 0, S was the fluorescence of tested samples (enzyme, sample solution, and substrate) after 60 min of incubation, and S0 was the fluorescence of the tested samples at time 0.
A human recombinant TACE (0.1 ppm in 25 mM Tris buffer), the substrate (APP peptide […] using EDANS/DABCYL), and phlorotannins were dissolved in an assay buffer, which were then combined and incubated for 60 min in the dark at 25 °C. The increase in fluorescence intensity produced by substrate hydrolysis was observed on a fluorescence microplate reader with excitation and emission wavelengths of 320 and 405 nm, respectively.

Data set [4] deals with trypsin. As to the kind of experiment: Colorimetric trypsin inhibition assay. Conditions: mean ± SD. The data set is classed as biochemical. The procedure: (§2) The colorimetric assays, including AChE, trypsin, chymotrypsin, and elastase were assayed according to previously described methods. The hydrolysis of AChE was monitored according to the formation of yellow 5-thio-2-nitrobenzoate anions at 405 nm for 15 min, which were produced by the reaction of DTNB with thiocholine released from ACh. All reactions were performed in 96-well plates in triplicate and recorded using a microplate spectrophotometer.
(§3) N-benzoyl-L-Arg-pNA, N-benzoyl-L-Tyr-pNA, and N-succinyl-Ala-Ala-Ala-pNA were used as substrates to assay the inhibition of trypsin, chymotrypsin, and elastase, respectively. Enzyme, Tris-HCl buffer (0.05 M, in 0.02 M CaCl2, pH 8.2), and phlorotannins were incubated for 10 min at 25 °C; then, substrate was added for 30 min at 37 °C. The absorbance was recorded at 410 nm. The inhibition ratio was obtained using the following equation:Inhibition (%) = {[1 − (A − B)]/control} × 100 where A was the absorbance of the control (enzyme, assay buffer, and substrate) after 60 min of incubation, and B was the absorbance of tested sample (assay buffer and sample solution) after 60 min of incubation.

For data set [5], the target named is T4, chymotrypsin (Bos taurus, UniProt P00766).
T4 construct: purchased Sigma-Aldrich (St. Louis, MO, USA)
Nature of the data set: Colorimetric chymotrypsin inhibition assay. The data set is classed as biochemical. Conditions: mean ± SD, read-out: Inhibitory activity Chymotrypsin; for inhibition at 50 µM: 50 μM compound; for inhibition at 100 µM: 100 μM compound. The procedure: as §2, §3

Data set [6] concerns the target T5, elastase (Sus scrofa, UniProt P00772).
T5 construct: purchased Sigma-Aldrich (St. Louis, MO, USA)
Nature of the data set: Colorimetric elastase inhibition assay. The format is biochemical. Conditions: mean ± SD, read-out: Inhibitory activity Elastase; for inhibition at 50 µM: 50 μM compound; for inhibition at 100 µM: 100 μM compound. As to the method: as §2, §3

Data set [7] addresses T1, BACE1. Nature of the data set: Enzyme kinetic study of BACE1 inhibition (Dixon and Lineweaver–Burk plots). The format is biochemical. Conditions: for Ki: Dixon plot; for Inhibition Mode BACE1: Lineweaver–Burk plot. As to the method: as §1
(§4) To evaluate the kinetic mechanisms of phlorotannins towards BACE1 and AChE, Dixon and Lineweaver–Burk plots were conducted by various concentrations of substrate and inhibitors. Kinetic parameters such as Ki, Vmax, and Km values were calculated by Sigma Plot 12.3 (Systat Software, Inc., San Jose, CA, USA)

For data set [8], the target named is T6, AChE (Electrophorus electricus, UniProt O42275).
T6 construct: purchased Sigma-Aldrich (St. Louis, MO, USA)
As to the kind of experiment: Enzyme kinetic study of AChE inhibition (Dixon and Lineweaver–Burk plots). Conditions: for Ki: Dixon plot; for Inhibition Mode AChE: Lineweaver–Burk plot. The data set is classed as biochemical, Electrophorus electricus (electric eel). The procedure: as §2, §4

Data set [9] has as its target hyaluronidase. Conditions: previous study; read-out: IC50 against hyaluronidase; cited from earlier work.
Data set [10] deals with HIV-reverse transcriptase. Conditions: compared with 8,4′′′-dieckol (diphenyl ether linkage); cited from earlier work.
For data set [11] the following is noted: cited from earlier work.
Data set [12] deals with BACE1. Conditions: phlorotannins from Eisenia bicyclis; cited from earlier work.
In data set [13] the test system is ethanol-induced memory impairment mice. Conditions: oral administration, 10 mg/kg; cited from earlier work.
Data set [14] concerns murine hippocampus neuronal cells. Conditions: cited from earlier work.
For data set [15] the following is noted: cited from earlier work. The source holds these as a separate data set.

T6 sequence (O42275 24-633): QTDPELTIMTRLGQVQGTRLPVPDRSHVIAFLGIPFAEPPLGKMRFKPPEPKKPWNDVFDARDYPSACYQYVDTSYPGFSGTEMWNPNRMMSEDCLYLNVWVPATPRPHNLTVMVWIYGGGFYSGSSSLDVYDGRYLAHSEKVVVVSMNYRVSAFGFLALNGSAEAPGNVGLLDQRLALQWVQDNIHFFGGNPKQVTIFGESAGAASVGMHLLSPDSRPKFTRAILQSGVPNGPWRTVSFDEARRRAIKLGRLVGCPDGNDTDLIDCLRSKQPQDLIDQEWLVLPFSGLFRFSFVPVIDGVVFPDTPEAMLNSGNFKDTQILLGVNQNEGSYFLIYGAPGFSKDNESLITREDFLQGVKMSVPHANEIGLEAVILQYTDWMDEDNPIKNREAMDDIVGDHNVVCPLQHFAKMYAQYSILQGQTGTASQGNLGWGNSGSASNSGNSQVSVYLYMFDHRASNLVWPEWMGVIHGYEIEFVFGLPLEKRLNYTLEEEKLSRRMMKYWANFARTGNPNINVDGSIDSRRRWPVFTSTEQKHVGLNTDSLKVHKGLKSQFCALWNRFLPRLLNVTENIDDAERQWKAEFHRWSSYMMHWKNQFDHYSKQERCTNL
T2 sequence (O42275 24-633): as above
T1 sequence (P56817 46-501): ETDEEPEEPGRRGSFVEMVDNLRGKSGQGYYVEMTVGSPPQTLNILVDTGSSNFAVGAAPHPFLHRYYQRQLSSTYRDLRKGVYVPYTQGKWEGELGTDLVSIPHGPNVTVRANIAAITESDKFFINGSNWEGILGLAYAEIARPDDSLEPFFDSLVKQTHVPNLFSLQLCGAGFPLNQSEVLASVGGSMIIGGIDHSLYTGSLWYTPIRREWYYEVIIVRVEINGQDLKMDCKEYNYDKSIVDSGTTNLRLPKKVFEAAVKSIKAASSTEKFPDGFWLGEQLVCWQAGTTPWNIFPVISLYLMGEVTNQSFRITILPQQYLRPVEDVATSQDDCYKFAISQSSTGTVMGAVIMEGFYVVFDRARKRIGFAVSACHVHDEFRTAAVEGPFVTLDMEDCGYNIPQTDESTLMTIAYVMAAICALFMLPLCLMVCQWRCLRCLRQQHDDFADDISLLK
T5 sequence (P00772 27-266): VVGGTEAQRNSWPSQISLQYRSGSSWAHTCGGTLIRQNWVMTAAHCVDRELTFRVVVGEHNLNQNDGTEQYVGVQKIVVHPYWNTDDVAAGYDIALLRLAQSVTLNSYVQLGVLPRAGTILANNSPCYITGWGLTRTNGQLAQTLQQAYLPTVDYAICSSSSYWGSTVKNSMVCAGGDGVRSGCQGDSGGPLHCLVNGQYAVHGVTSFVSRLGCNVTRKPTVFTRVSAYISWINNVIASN
T3 sequence (P78536 215-824): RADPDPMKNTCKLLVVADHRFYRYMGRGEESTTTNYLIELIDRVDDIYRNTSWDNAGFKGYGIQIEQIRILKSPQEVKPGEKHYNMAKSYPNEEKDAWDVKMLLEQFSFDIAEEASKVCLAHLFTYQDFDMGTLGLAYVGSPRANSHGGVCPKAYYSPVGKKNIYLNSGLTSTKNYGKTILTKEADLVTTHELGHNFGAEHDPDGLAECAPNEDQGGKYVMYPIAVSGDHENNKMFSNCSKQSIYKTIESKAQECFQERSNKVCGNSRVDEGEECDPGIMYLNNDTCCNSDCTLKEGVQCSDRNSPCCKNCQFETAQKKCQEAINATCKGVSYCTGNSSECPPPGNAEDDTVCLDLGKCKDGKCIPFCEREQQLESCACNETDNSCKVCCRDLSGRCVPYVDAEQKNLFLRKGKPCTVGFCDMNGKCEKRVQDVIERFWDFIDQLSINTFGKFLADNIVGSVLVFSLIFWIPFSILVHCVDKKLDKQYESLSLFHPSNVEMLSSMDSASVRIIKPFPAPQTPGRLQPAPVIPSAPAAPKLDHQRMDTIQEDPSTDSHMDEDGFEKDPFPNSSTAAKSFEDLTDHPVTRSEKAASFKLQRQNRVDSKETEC

As to `Oc1cc(O)cc(Oc2c(O)cc(O)c3c2Oc2c(cc(O)c(-c4c(O)cc5c(c4O)Oc4c(Oc6cc(O)cc(O)c6)c(O)cc(O)c4O5)c2O)O3)c1` [8,8′-Bieckol, 9-(3,5-dihydroxyphenoxy)-2-[9-(3,5-dihydroxyphenoxy)-1,3,6,8-tetrahydroxydibenzo-p-dioxin-2-yl]dibenzo-p-dioxin-1,3,6,8-tetrol], the figures for the IC50 in [1], in data set [2] and in data set [9] were 1.62 ± 0.14 µM, 4.59 ± 0.32 µM and 40 µM, respectively. The inhibition at 50 µM in data set [3] worked out at 11.1 ± 0.53%; in data set [5] it was 0.86 ± 0.02%; in [6], 5.26 ± 0.43%. In addition, the inhibition at 100 µM was determined as 3.57 ± 0.05% in [3], 0.33 ± 0.01% in data set [5] and 7.52 ± 0.24% in data set [6]. Also, the figures for the “Inhibitory activity Trypsin” value in data set [4] (50 μM compound) and in data set [4] (100 μM compound) were 2.98 ± 0.26% and −23.05 ± 0.32%, respectively. The values for the Ki in [7] and in [8] were 13.9 µM and 11.4 µM, respectively. Also, the “Inhibition Mode BACE1” value in data set [7] is reported as “Non-competitive”. Also, the “Inhibition Mode AChE” value in data set [8] is “Competitive”. Also, the “Inhibitory effect on HIV-reverse transcriptase relative to 8,4′′′-dieckol” value in [10] is listed as “tenfold higher”. Further, in [11], the “Lipinski's requirements for acceptable oral bioavailability” value (shortened to “Lipinski's requirements”) was “have limitations on bioavailability”.
Regarding `Oc1cc(O)cc(Oc2c(O)cc(O)c3c2Oc2c(O)cc(Oc4c(O)cc(Oc5c(O)cc(O)c6c5Oc5c(O)cc(O)cc5O6)cc4O)cc2O3)c1` [Dieckol, 4-[4-[6-(3,5-dihydroxyphenoxy)-4,7,9-trihydroxydibenzo-p-dioxin-2-yl]oxy-3,5-dihydroxyphenoxy]dibenzo-p-dioxin-1,3,6,8-tetrol], the IC50 (usually the concentration needed to halve the response being measured) was 2.34 ± 0.1 µM in [1], 5.69 ± 0.42 µM in [2] and 120 µM in data set [9]. In addition, the inhibition at 50 µM stood at 16.9 ± 1.01% in [3], 4.39 ± 0.44% in data set [5] and 6.7 ± 0.85% in data set [6]. The inhibition at 100 µM in data set [3] was 18.3 ± 0.41%; in data set [5], 1.43 ± 0.02%; in data set [6], 6.2 ± 0.14%. For the same compound, the “Inhibitory activity Trypsin” value in [4] (50 μM compound) was 6.44 ± 0.76%; in data set [4] (100 μM compound), −16.64 ± 1.40%. The Ki (in general, a dissociation constant, usually derived from enzyme kinetics or from competition with a known ligand) is 20.1 µM in data set [7] and 12.3 µM in [8]. In addition, the “Inhibition Mode BACE1” value in data set [7] is on record as “Non-competitive”. Further, the “Inhibition Mode AChE” value in data set [8] was “Competitive”. Also, in data set [12], the “BACE1 inhibitory effect, relative” value is reported as “stronger than eckol”. Besides, in data set [13], the Cognitive ability result is on record as “improved cognitive ability”. Further, in data set [14], the H2O2-induced oxidative stress entry is “suppressed H2O2-induced oxidative stress”. The “Lipinski's requirements” value in data set [11] is given as “have limitations on bioavailability”. In data set [15], the “Penetration into the brain across the blood–brain barrier” value is “successfully penetrated into the brain via crossing the blood–brain barrier”.
As to `Oc1cc(O)cc(Oc2c(O)cc(O)c3c2Oc2c(O)cc(O)cc2O3)c1` [Eckol, 4-(3,5-dihydroxyphenoxy)dibenzo-p-dioxin-1,3,6,8-tetrol], the IC50 in [1] was 7.67 ± 0.71 µM; in data set [2], 10 ± 0.94 µM; in data set [9] it was over 800 µM. For the same compound, the inhibition at 50 µM in [3] came to 19.3 ± 1.52%; in data set [5], 1.48 ± 0.19%; in [6], 6.06 ± 0.13%. Moreover, the inhibition at 100 µM in [3] worked out at 10.6 ± 0.53%; in data set [5], 2.65 ± 0.06%; in [6], 4.37 ± 0.27%. Further, the entries for the “Inhibitory activity Trypsin” value in [4] (50 μM compound) and in data set [4] (100 μM compound) were 3.59 ± 0.57% and 4.73 ± 0.25%, respectively. The Ki worked out at 31.2 µM in [7] and 37.3 µM in [8]. In addition, in data set [7], the “Inhibition Mode BACE1” value was “Non-competitive”. Also, in data set [8], the “Inhibition Mode AChE” value is given as “Competitive”. The H2O2-induced oxidative stress result in data set [14] is recorded as “suppressed H2O2-induced oxidative stress”. Also, in data set [11], the “Lipinski's requirements” value was “meets Lipinski′s requirements for acceptable oral bioavailability”.
